Experimental data as given in the supplement of paper PMC11061612.

Tests used:
AZD5363 = compound: C1CN(CCC1(C(=O)N[C@@H](CCO)C2=CC=C(C=C2)Cl)N)C3=NC=NC4=C3C=CN4 [AZD5363]; settings: max 10 µM
Summary of the method: (§1)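 Cancer cell lines were plated in 1536-well plates in 7.5 μl of DMEM/F12 or RPMI with 10% FBS and kept 24 hours at 37°C and 5% CO2 before 72 hours of dosing, with final DMSO typically 0.2%. CellTiter-Glo 2.0 luminescence measured viability, scaled between blank-well and DMSO-well means. Dose responses were fitted to a two-parameter logistic curve with a non-linear mixed effects model. This fit gives the single-agent IC50.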

AZD5153 = compound: COc1nnc2ccc(N3CCC(c4ccc(OCCN5CCN(C)C(=O)[C@H]5C)cc4)CC3)nn12 [AZD5153]; settings: max 1 µM
Summary of the method: as §1

Trametinib = compound: CC(=O)Nc1cccc(-n2c(=O)n(C3CC3)c(=O)c3c(Nc4ccc(I)cc4F)n(C)c(=O)c(C)c32)c1 [Trametinib]; settings: max 1 µM
Summary of the method: as §1

Venetoclax = compound: CC1(C)CCC(CN2CCN(c3ccc(C(=O)NS(=O)(=O)c4ccc(NCC5CCOCC5)c([N+](=O)[O-])c4)c(Oc4cnc5[nH]ccc5c4)c3)CC2)=C(c2ccc(Cl)cc2)C1 [Venetoclax]; settings: max 1 µM
Summary of the method: as §1

SG3199 = compound: CC1=CN2[C@@H](C1)C=NC3=CC(=C(C=C3C2=O)OC)OCCCCCOC4=C(C=C5C(=C4)N=C[C@@H]6CC(=CN6C5=O)C)OC [SG3199]; settings: max 0.001 µM
Summary of the method: as §1

AZD5991 = compound: Cc1c2c(nn1C)CSCc1cc(n(C)n1)CSc1cc(c3ccccc3c1)OCCCc1c(C(=O)O)n(C)c3c-2c(Cl)ccc13 [AZD5991]; settings: max 1 µM
Summary of the method: as §1

Alisertib = compound: COc1cc(Nc2ncc3c(n2)-c2ccc(Cl)cc2C(c2c(F)cccc2OC)=NC3)ccc1C(=O)O [Alisertib]; settings: max 10 µM
Summary of the method: as §1

AZD6738 = compound: C[C@@H]1COCCN1C2=NC(=NC(=C2)C3(CC3)[S@](=N)(=O)C)C4=C5C=CNC5=NC=C4 [AZD6738]; settings: max 10 µM
Summary of the method: as §1

Paclitaxel = compound: CC(=O)O[C@H]1C(=O)[C@@]2(C)[C@H]([C@H](OC(=O)c3ccccc3)[C@]3(O)C[C@H](OC(=O)[C@H](O)[C@@H](NC(=O)c4ccccc4)c4ccccc4)C(C)=C1C3(C)C)[C@]1(OC(C)=O)CO[C@@H]1C[C@@H]2O [Paclitaxel]; settings: max 3 µM
Summary of the method: as §1

AZD2811 = compound: CCN(CCO)CCCOc1ccc2c(Nc3cc(CC(=O)Nc4cccc(F)c4)[nH]n3)ncnc2c1 [AZD2811]; settings: max 1 µM
Summary of the method: as §1

Taselisib = compound: Cc1nc(-c2cn3c(n2)-c2ccc(-c4cnn(C(C)(C)C(N)=O)c4)cc2OCC3)n(C(C)C)n1 [Taselisib]; settings: max 10 µM
Summary of the method: as §1

Lapatinib = compound: CS(=O)(=O)CCNCc1ccc(-c2ccc3ncnc(Nc4ccc(OCc5cccc(F)c5)c(Cl)c4)c3c2)o1 [Lapatinib]; settings: max 10 µM
Summary of the method: as §1

AZD1390 = compound: CC(C)n1c(=O)n(C)c2cnc3cc(F)c(-c4ccc(OCCCN5CCCCC5)nc4)cc3c21 [AZD1390]; settings: max 0.3 µM
Summary of the method: as §1

Doxorubicin = compound: COc1cccc2c1C(=O)c1c(O)c3c(c(O)c1C2=O)C[C@@](O)(C(=O)CO)C[C@@H]3O[C@H]1C[C@H](N)[C@H](O)[C@H](C)O1 [Doxorubicin]; settings: max 1 µM
Summary of the method: as §1

Gefitinib = compound: COc1cc2ncnc(Nc3ccc(F)c(Cl)c3)c2cc1OCCCN1CCOCC1 [Gefitinib]; settings: max 10 µM
Summary of the method: as §1

Prexasertib = compound: COc1cccc(OCCCN)c1-c1cc(Nc2cnc(C#N)cn2)n[nH]1 [Prexasertib]; settings: max 1 µM
Summary of the method: as §1

AZD0156 = compound: CN(C)CCCOc1ccc(-c2ccc3ncc4c(c3c2)n(C2CCOCC2)c(=O)n4C)cn1 [AZD0156]; settings: max 3 µM
Summary of the method: as §1

SRA737 = compound: N#Cc1cnc(Nc2cc(NC[C@H]3CNCCO3)c(C(F)(F)F)cn2)cn1 [SRA737]; settings: max 10 µM
Summary of the method: as §1

Dasatinib = compound: CC1=C(C(=CC=C1)Cl)NC(=O)C2=CN=C(S2)NC3=CC(=NC(=N3)C)N4CCN(CC4)CCO [Dasatinib]; settings: max 2 µM
Summary of the method: as §1

Olaparib = compound: O=C(c1cc(Cc2n[nH]c(=O)c3ccccc23)ccc1F)N1CCN(C(=O)C2CC2)CC1 [Olaparib]; settings: max 10 µM
Summary of the method: as §1

Carboplatin = compound: C1CC(C1)(C(=O)[O-])C(=O)[O-].N.N.[Pt+2] [Carboplatin]; settings: max 10 µM
Summary of the method: as §1

Etoposide = compound: COc1cc([C@@H]2c3cc4c(cc3[C@@H](O[C@@H]3O[C@@H]5CO[C@@H](C)O[C@H]5[C@H](O)[C@H]3O)[C@H]3COC(=O)[C@H]23)OCO4)cc(OC)c1O [Etoposide]; settings: max 10 µM
Summary of the method: as §1

Selumetinib = compound: Cn1cnc2c(F)c(Nc3ccc(Br)cc3Cl)c(C(=O)NOCCO)cc21 [Selumetinib]; settings: max 10 µM
Summary of the method: as §1

5-Fluorouracil = compound: O=c1[nH]cc(F)c(=O)[nH]1 [5-Fluorouracil]; settings: max 20 µM
Summary of the method: as §1

Gemcitabine = compound: Nc1ccn([C@@H]2O[C@H](CO)[C@@H](O)C2(F)F)c(=O)n1 [Gemcitabine]; settings: max 0.3 µM
Summary of the method: as §1

Palbociclib = compound: CC(=O)c1c(C)c2cnc(Nc3ccc(N4CCNCC4)cn3)nc2n(C2CCCC2)c1=O [Palbociclib]; settings: max 10 µM
Summary of the method: as §1

AZD7648 = compound: Cc1cc2ncnn2cc1Nc1ncc2c(n1)n(C1CCOCC1)c(=O)n2C [AZD7648]; settings: max 10 µM
Summary of the method: as §1

AZD1775 = compound: C=CCn1c(=O)c2cnc(Nc3ccc(N4CCN(C)CC4)cc3)nc2n1-c1cccc(C(C)(C)O)n1 [AZD1775]; settings: max 3 µM
Summary of the method: as §1

AZD4320 = compound: CN(CC[C@H](CSC1=CC=CC=C1)NC2=C(C=C(C=C2)S(=O)(=O)NC(=O)C3=CC=C(C=C3)N4CCC(CC4)[C@H](C5=CC=CC=C5C6=CC=C(C=C6)Cl)O)S(=O)(=O)C(F)(F)F)CCO [AZD4320]; settings: max 1 µM
Summary of the method: as §1

Crizotinib = compound: C[C@@H](Oc1cc(-c2cnn(C3CCNCC3)c2)cnc1N)c1c(Cl)ccc(F)c1Cl [Crizotinib]; settings: max 10 µM
Summary of the method: as §1

[1] = compound: O=C(Nc1ccc2[nH]nc(-c3ccncc3)c2c1)[C@@H]1CCN(CC(=O)N2CCN(c3ccc(-c4ncccn4)cc3)CC2)C1; settings: max 5 µM
Summary of the method: as §1

MK-2206 = compound: NC1(c2ccc(-c3nc4ccn5c(=O)[nH]nc5c4cc3-c3ccccc3)cc2)CCC1 [MK-2206]; settings: max 10 µM
Summary of the method: as §1

SN-38 = compound: CCc1c2c(nc3ccc(O)cc13)-c1cc3c(c(=O)n1C2)COC(=O)[C@]3(O)CC [SN-38]; settings: max 0.3 µM
Summary of the method: as §1

AZD8186 = compound: C[C@@H](Nc1cc(F)cc(F)c1)c1cc(C(=O)N(C)C)cc2c(=O)cc(N3CCOCC3)oc12 [AZD8186]; settings: max 10 µM
Summary of the method: as §1

Savolitinib = compound: C[C@@H](c1ccc2nccn2c1)n1nnc2ncc(-c3cnn(C)c3)nc21 [Savolitinib]; settings: max 1 µM
Summary of the method: as §1

## CS1 (Chondrosarcoma)
AZD5363
  IC50, cell viability 72 h: > 10 µM
AZD5153
  IC50, cell viability 72 h: > 1000 nM
Trametinib
  IC50, cell viability 72 h: > 1000 nM
Venetoclax
  IC50, cell viability 72 h: > 1000 nM
SG3199
  IC50, cell viability 72 h: > 1 nM
AZD5991
  IC50, cell viability 72 h: > 1000 nM
Alisertib
  IC50, cell viability 72 h: 4.52 µM
AZD6738
  IC50, cell viability 72 h: > 10 µM
Paclitaxel
  IC50, cell viability 72 h: 114 nM
AZD2811
  IC50, cell viability 72 h: > 1000 nM
Taselisib
  IC50, cell viability 72 h: > 10 µM
Lapatinib
  IC50, cell viability 72 h: > 10 µM
AZD1390
  IC50, cell viability 72 h: > 300 nM
Doxorubicin
  IC50, cell viability 72 h: 641 nM
Gefitinib
  IC50, cell viability 72 h: > 10 µM
Prexasertib
  IC50, cell viability 72 h: 77.2 nM
AZD0156
  IC50, cell viability 72 h: > 3000 nM
SRA737
  IC50, cell viability 72 h: > 10 µM
Dasatinib
  IC50, cell viability 72 h: > 2000 nM
Olaparib
  IC50, cell viability 72 h: > 10 µM
Carboplatin
  IC50, cell viability 72 h: > 10 µM
Etoposide
  IC50, cell viability 72 h: > 10 µM
Selumetinib
  IC50, cell viability 72 h: > 10 µM
5-Fluorouracil
  IC50, cell viability 72 h: > 20 µM
Gemcitabine
  IC50, cell viability 72 h: > 300 nM
Palbociclib
  IC50, cell viability 72 h: > 10 µM
AZD7648
  IC50, cell viability 72 h: > 10 µM
AZD1775
  IC50, cell viability 72 h: 2030 nM
AZD4320
  IC50, cell viability 72 h: > 1000 nM
Crizotinib
  IC50, cell viability 72 h: 9.48 µM
[1]
  IC50, cell viability 72 h: > 5 µM
MK-2206
  IC50, cell viability 72 h: > 10 µM
SN-38
  IC50, cell viability 72 h: 18.6 nM
AZD8186
  IC50, cell viability 72 h: > 10 µM
Savolitinib
  IC50, cell viability 72 h: > 1000 nM

## MSTO-211H (Mesothelioma)
AZD5363
  IC50, cell viability 72 h: > 10 µM
AZD5153
  IC50, cell viability 72 h: > 1000 nM
Trametinib
  IC50, cell viability 72 h: 874 nM
Venetoclax
  IC50, cell viability 72 h: > 1000 nM
SG3199
  IC50, cell viability 72 h: > 1 nM
AZD5991
  IC50, cell viability 72 h: > 1000 nM
Alisertib
  IC50, cell viability 72 h: 3.84 µM
AZD6738
  IC50, cell viability 72 h: 7.72 µM
Paclitaxel
  IC50, cell viability 72 h: 2950 nM
AZD2811
  IC50, cell viability 72 h: > 1000 nM
Taselisib
  IC50, cell viability 72 h: > 10 µM
Lapatinib
  IC50, cell viability 72 h: > 10 µM
AZD1390
  IC50, cell viability 72 h: > 300 nM
Doxorubicin
  IC50, cell viability 72 h: 857 nM
Gefitinib
  IC50, cell viability 72 h: > 10 µM
Prexasertib
  IC50, cell viability 72 h: 54.4 nM
AZD0156
  IC50, cell viability 72 h: > 3000 nM
SRA737
  IC50, cell viability 72 h: > 10 µM
Dasatinib
  IC50, cell viability 72 h: > 2000 nM
Olaparib
  IC50, cell viability 72 h: > 10 µM
Carboplatin
  IC50, cell viability 72 h: > 10 µM
Etoposide
  IC50, cell viability 72 h: 9.06 µM
Selumetinib
  IC50, cell viability 72 h: > 10 µM
5-Fluorouracil
  IC50, cell viability 72 h: > 20 µM
Gemcitabine
  IC50, cell viability 72 h: 21.9 nM
Palbociclib
  IC50, cell viability 72 h: > 10 µM
AZD7648
  IC50, cell viability 72 h: > 10 µM
AZD1775
  IC50, cell viability 72 h: > 3000 nM
AZD4320
  IC50, cell viability 72 h: > 1000 nM
Crizotinib
  IC50, cell viability 72 h: > 10 µM
[1]
  IC50, cell viability 72 h: > 5 µM
MK-2206
  IC50, cell viability 72 h: > 10 µM
SN-38
  IC50, cell viability 72 h: 47 nM
AZD8186
  IC50, cell viability 72 h: > 10 µM
Savolitinib
  IC50, cell viability 72 h: > 1000 nM
